According to BigSolDB 2.1:

O=P(O)(O)c1ccccc1
Conditions | solubility (mole fraction)
in 1,4-dioxane, 288.15 K | 0.186
in 1,4-dioxane, 293.15 K | 0.208
in 1,4-dioxane, 298.15 K | 0.224
in 1,4-dioxane, 303.15 K | 0.243
in 1,4-dioxane, 308.15 K | 0.264
in 1,4-dioxane, 313.15 K | 0.286
in 1,4-dioxane, 318.15 K | 0.307
in 1,4-dioxane, 323.15 K | 0.336
in 1,4-dioxane, 328.15 K | 0.36
in 1,4-dioxane, 333.15 K | 0.388
in 2-butoxyethanol, 278.15 K | 0.199
in 2-butoxyethanol, 283.15 K | 0.208
in 2-butoxyethanol, 288.15 K | 0.218
in 2-butoxyethanol, 293.15 K | 0.231
in 2-butoxyethanol, 298.15 K | 0.243
in 2-butoxyethanol, 303.15 K | 0.258
in 2-butoxyethanol, 308.15 K | 0.27
in 2-butoxyethanol, 313.15 K | 0.283
in 2-butoxyethanol, 318.15 K | 0.298
in 2-butoxyethanol, 323.15 K | 0.317
in 2-butoxyethanol, 328.15 K | 0.334
in 2-butoxyethanol, 333.15 K | 0.355
in 2-ethoxyethanol, 278.15 K | 0.305
in 2-ethoxyethanol, 283.15 K | 0.317
in 2-ethoxyethanol, 288.15 K | 0.327
in 2-ethoxyethanol, 293.15 K | 0.339
in 2-ethoxyethanol, 298.15 K | 0.35
in 2-ethoxyethanol, 303.15 K | 0.363
in 2-ethoxyethanol, 308.15 K | 0.378
in 2-ethoxyethanol, 313.15 K | 0.391
in 2-ethoxyethanol, 318.15 K | 0.404
in 2-ethoxyethanol, 323.15 K | 0.42
in 2-ethoxyethanol, 328.15 K | 0.439
in 2-ethoxyethanol, 333.15 K | 0.454
in 2-methoxyethanol, 278.15 K | 0.342
in 2-methoxyethanol, 283.15 K | 0.348
in 2-methoxyethanol, 288.15 K | 0.359
in 2-methoxyethanol, 293.15 K | 0.371
in 2-methoxyethanol, 298.15 K | 0.383
in 2-methoxyethanol, 303.15 K | 0.397
in 2-methoxyethanol, 308.15 K | 0.408
in 2-methoxyethanol, 313.15 K | 0.425
in 2-methoxyethanol, 318.15 K | 0.439
in 2-methoxyethanol, 323.15 K | 0.453
in 2-methoxyethanol, 328.15 K | 0.468
in 2-methoxyethanol, 333.15 K | 0.483
in 2-propoxyethanol, 278.15 K | 0.244
in 2-propoxyethanol, 283.15 K | 0.257
in 2-propoxyethanol, 288.15 K | 0.266
in 2-propoxyethanol, 293.15 K | 0.28
in 2-propoxyethanol, 298.15 K | 0.295
in 2-propoxyethanol, 303.15 K | 0.307
in 2-propoxyethanol, 308.15 K | 0.318
in 2-propoxyethanol, 313.15 K | 0.336
in 2-propoxyethanol, 318.15 K | 0.349
in 2-propoxyethanol, 323.15 K | 0.368
in 2-propoxyethanol, 328.15 K | 0.382
in 2-propoxyethanol, 333.15 K | 0.401
in acetone, 273.15 K | 0.0872
in acetone, 278.15 K | 0.101
in acetone, 283.15 K | 0.113
in acetone, 288.15 K | 0.13
in acetone, 293.15 K | 0.144
in acetone, 298.15 K | 0.162
in acetone, 303.15 K | 0.178
in acetone, 308.15 K | 0.201
in acetone, 313.15 K | 0.223
in acetone, 318.15 K | 0.249
in ethanol, 278.15 K | 0.288
in ethanol, 283.15 K | 0.295
in ethanol, 288.15 K | 0.305
in ethanol, 293.15 K | 0.314
in ethanol, 298.15 K | 0.326
in ethanol, 303.15 K | 0.334
in ethanol, 308.15 K | 0.347
in ethanol, 313.15 K | 0.357
in ethanol, 318.15 K | 0.371
in ethanol, 323.15 K | 0.383
in ethanol, 328.15 K | 0.394
in ethanol, 333.15 K | 0.407
in isopropanol, 278.15 K | 0.24
in isopropanol, 283.15 K | 0.251
in isopropanol, 288.15 K | 0.265
in isopropanol, 293.15 K | 0.277
in isopropanol, 298.15 K | 0.291
in isopropanol, 303.15 K | 0.307
in isopropanol, 308.15 K | 0.317
in isopropanol, 313.15 K | 0.331
in isopropanol, 318.15 K | 0.346
in isopropanol, 323.15 K | 0.361
in isopropanol, 328.15 K | 0.376
in isopropanol, 333.15 K | 0.394
in methanol, 273.15 K | 0.29
in methanol, 278.15 K | 0.299
in methanol, 283.15 K | 0.307
in methanol, 288.15 K | 0.315
in methanol, 293.15 K | 0.324
in methanol, 298.15 K | 0.335
in methanol, 303.15 K | 0.347
in methanol, 308.15 K | 0.357
in methanol, 313.15 K | 0.369
in methanol, 318.15 K | 0.38
in n-butanol, 278.15 K | 0.193
in n-butanol, 283.15 K | 0.204
in n-butanol, 288.15 K | 0.22
in n-butanol, 293.15 K | 0.232
in n-butanol, 298.15 K | 0.248
in n-butanol, 303.15 K | 0.26
in n-butanol, 308.15 K | 0.273
in n-butanol, 313.15 K | 0.29
in n-butanol, 318.15 K | 0.304
in n-butanol, 323.15 K | 0.321
in n-butanol, 328.15 K | 0.337
in n-butanol, 333.15 K | 0.354
in n-heptanol, 278.15 K | 0.122
in n-heptanol, 283.15 K | 0.133
in n-heptanol, 288.15 K | 0.143
in n-heptanol, 293.15 K | 0.158
in n-heptanol, 298.15 K | 0.17
in n-heptanol, 303.15 K | 0.183
in n-heptanol, 308.15 K | 0.196
in n-heptanol, 313.15 K | 0.212
in n-heptanol, 318.15 K | 0.227
in n-heptanol, 323.15 K | 0.243
in n-heptanol, 328.15 K | 0.26
in n-heptanol, 333.15 K | 0.278
in n-hexanol, 278.15 K | 0.134
in n-hexanol, 283.15 K | 0.146
in n-hexanol, 288.15 K | 0.159
in n-hexanol, 293.15 K | 0.174
in n-hexanol, 298.15 K | 0.188
in n-hexanol, 303.15 K | 0.202
in n-hexanol, 308.15 K | 0.218
in n-hexanol, 313.15 K | 0.23
in n-hexanol, 318.15 K | 0.245
in n-hexanol, 323.15 K | 0.26
in n-hexanol, 328.15 K | 0.278
in n-hexanol, 333.15 K | 0.297
in n-octanol, 278.15 K | 0.0997
in n-octanol, 283.15 K | 0.11
in n-octanol, 288.15 K | 0.123
in n-octanol, 293.15 K | 0.134
in n-octanol, 298.15 K | 0.147
in n-octanol, 303.15 K | 0.161
in n-octanol, 308.15 K | 0.177
in n-octanol, 313.15 K | 0.189
in n-octanol, 318.15 K | 0.202
in n-octanol, 323.15 K | 0.218
in n-octanol, 328.15 K | 0.234
in n-octanol, 333.15 K | 0.252
in n-pentanol, 278.15 K | 0.161
in n-pentanol, 283.15 K | 0.175
in n-pentanol, 288.15 K | 0.186
in n-pentanol, 293.15 K | 0.199
in n-pentanol, 298.15 K | 0.212
in n-pentanol, 303.15 K | 0.226
in n-pentanol, 308.15 K | 0.242
in n-pentanol, 313.15 K | 0.258
in n-pentanol, 318.15 K | 0.273
in n-pentanol, 323.15 K | 0.287
in n-pentanol, 328.15 K | 0.308
in n-pentanol, 333.15 K | 0.323
in n-propanol, 278.15 K | 0.236
in n-propanol, 283.15 K | 0.248
in n-propanol, 288.15 K | 0.262
in n-propanol, 293.15 K | 0.271
in n-propanol, 298.15 K | 0.286
in n-propanol, 303.15 K | 0.296
in n-propanol, 308.15 K | 0.311
in n-propanol, 313.15 K | 0.321
in n-propanol, 318.15 K | 0.332
in n-propanol, 323.15 K | 0.347
in n-propanol, 328.15 K | 0.361
in n-propanol, 333.15 K | 0.375
